Data on 30 compounds can be found in ChEMBL document CHEMBL4477199, “Design and synthesis of novel bicalutamide and enzalutamide derivatives as antiproliferative agents for the treatment of prostate cancer” (Eur J Med Chem, 2016).

In series [1] the test system is LNCaP. Description: Antiproliferative activity against human LNCAP cells after 96 hrs by propidium iodide staining based fluorescence 2D monolayer assay. It counts as functional, cell-based.
For series [2] the following is noted: 33000 µM.
Description: Solubility in 100% DMSO at 33 mM at -20 degC
In series [3] the test system is DU-145. Description: Antiproliferative activity against human DU145 cells after 96 hrs by propidium iodide staining based fluorescence 2D monolayer assay. As to conditions: DU-145, 96 h. It counts as functional, cell-based.
For series [4] the following is noted: 96 h.
Description: Solubility in RPMI1640 culture medium at <30 uM incubated for 4 days by microscopic analysis
Series [5] has as its system CWR22R. Kind of series: Antiproliferative activity against human 22Rv1 cells after 96 hrs by propidium iodide staining based fluorescence 2D monolayer assay. The class given is functional, cell-based. As to conditions: 22Rv1, 96 h.
Series [6] has as its system VCaP. Description: Antiproliferative activity against human VCaP cells after 96 hrs by propidium iodide staining based fluorescence 2D monolayer assay. It counts as functional, cell-based.

Turning to `CC(O)(COc1ccccc1OC(F)(F)F)C(=O)Nc1ccc(C#N)cc1C(F)(F)F` (stereo not given), the IC50 in series [1] was 33.8 µM; in series [3] it was 27.1 µM; in series [5] it was 16.7 µM; in series [6] it was 43.9 µM. The solubility entry in series [2] and in series [4] was “Soluble” throughout.

With `C[C@](O)(CS(=O)(=O)c1cccc(C(F)(F)F)c1)C(=O)Nc1ccc(C#N)c(C(F)(F)F)c1`, the IC50 in series [1] amounted to 13.2 µM; in series [3] it was 45.2 µM; in series [5] it was 25.7 µM; in series [6] it was 39.9 µM. The solubility entry in series [2] and in series [4] was “Soluble” throughout.

`CC(O)(COc1ccc(C(F)(F)F)cn1)C(=O)Nc1ccc([N+](=O)[O-])c(C(F)(F)F)c1` (stereo not given): the IC50 in series [1] stood at 36.5 µM; in series [3], 100 µM; in series [5], 35.2 µM; in series [6], 100 µM. In addition, the solubility entry in series [2] and in series [4] was “Soluble” throughout.

Take `CC(O)(COc1cccc(C(F)(F)F)c1)C(=O)Nc1ccc(C(F)(F)F)cc1` (stereo not given): the IC50 in series [1] stood at 18.2 µM; in series [3], 27.4 µM; in series [5], 25.7 µM; in series [6], 18.6 µM. Moreover, the solubility entry in series [2] and in series [4] was “Soluble” each time.

As for `C[C@](O)(CS(=O)(=O)c1ccc(F)cc1)C(=O)Nc1ccc(C#N)cc1C(F)(F)F`, the IC50 in series [1] came to 85.5 µM; in series [3] it was 100 µM; in series [5], 100 µM; in series [6], 100 µM. The solubility entry in series [2] and in series [4] was “Soluble” throughout.

For the compound `CC(O)(CSc1cccc(OC(F)(F)F)c1)C(=O)Nc1ccc(C(F)(F)F)cc1` (stereo not given), the IC50 in series [1] is 13.9 µM; in series [3], 27.8 µM; in series [5] it was 15.9 µM; in series [6] it was 18.8 µM. In addition, the solubility result in series [2] and in series [4] was “Soluble” each time.

Turning to `CC(O)(COc1ccc(F)cc1F)C(=O)Nc1ccc(C#N)c(C(F)(F)F)c1` (stereo not given), the IC50 in series [1] was 37.3 µM; in series [3], 44.3 µM; in series [5], 34 µM; in series [6], 38.7 µM. Besides, the solubility result in series [2] and in series [4] was “Soluble” each time.

On to `C[C@](O)(CSc1ccc(F)cc1F)C(=O)Nc1ccc(C#N)c(C(F)(F)F)c1`, for which the IC50 in series [1] was 25.2 µM; in series [3], 28.5 µM; in series [5], 17.2 µM; in series [6], 18.3 µM. For the same compound, the solubility result in series [2] and in series [4] was “Soluble” throughout.

As to `CC(O)(CSc1ccc(C(F)(F)F)cn1)C(=O)Nc1ccc(C#N)c(C(F)(F)F)c1` (stereo not given), the half-maximal inhibitory concentration (IC50) worked out at 80.7 µM in series [1], 84.1 µM in series [3], 53.9 µM in series [5] and 89.3 µM in series [6]. Further, the solubility result in series [2] and in series [4] was “Soluble” throughout.

Regarding `CC(O)(CS(=O)(=O)c1ccc(C(F)(F)F)cc1)C(=O)Nc1ccc([N+](=O)[O-])cc1C(F)(F)F` (stereo not given), the IC50 was 29.3 µM in series [1], 40.9 µM in series [3], 25.4 µM in series [5] and 46.9 µM in series [6]. For the same compound, the solubility entry in series [2] and in series [4] was “Soluble” in each case.

Consider `CC(O)(COc1cccc(OC(F)(F)F)c1)C(=O)Nc1ccc(C#N)c(C(F)(F)F)c1` (stereo not given), for which the IC50 in series [1] was found to be 9.83 µM; in series [3], 16.4 µM; in series [5], 9.79 µM; in series [6], 9.91 µM. The solubility result in series [2] and in series [4] was “Soluble” each time.

Regarding `CC(O)(CSc1ccc(C(F)(F)F)cc1)C(=O)Nc1ccc([N+](=O)[O-])cc1C(F)(F)F` (stereo not given), the IC50 in series [1] was 8.66 µM; in series [3] it was 19.2 µM; in series [5], 14.6 µM; in series [6] it was 17.1 µM. Besides, the solubility entry in series [2] and in series [4] was “Soluble” throughout.

For `C[C@](O)(CSc1ccc(OC(F)(F)F)cc1)C(=O)Nc1ccc(C#N)c(C(F)(F)F)c1`, the IC50 was determined as 19.8 µM in series [1], 29.8 µM in series [3], 28.8 µM in series [5] and 17.4 µM in series [6]. Moreover, the solubility entry in series [2] and in series [4] was “Soluble” each time.

In the case of `CC(O)(CS(=O)(=O)c1ccccc1OC(F)(F)F)C(=O)Nc1ccc([N+](=O)[O-])cc1C(F)(F)F` (stereo not given), the IC50 stood at 17.8 µM in series [1], 39 µM in series [3], 28.8 µM in series [5] and 51.7 µM in series [6]. The solubility entry in series [2] and in series [4] was “Soluble” in each case.

As to `CC(O)(CSc1ccc(F)cc1)C(=O)Nc1ccc(C#N)cc1C(F)(F)F` (stereo not given), the IC50 in series [1] turned out to be 26.4 µM; in series [3], 43.3 µM; in series [5] it was 30.1 µM; in series [6], 45.5 µM. The solubility result in series [2] and in series [4] was “Soluble” in each case.

As to `CC(O)(CS(=O)(=O)c1ccc(C(F)(F)F)cc1)C(=O)Nc1ccc(C#N)cc1C(F)(F)F` (stereo not given), the IC50 came out at 32.9 µM in series [1], 44.6 µM in series [3], 27.9 µM in series [5] and 43.3 µM in series [6]. Further, the solubility result in series [2] and in series [4] was “Soluble” throughout.

On to `CC(O)(CSc1ccc(C(F)(F)F)cc1)C(=O)Nc1ccc([N+](=O)[O-])c(C(F)(F)F)c1` (stereo not given), for which the IC50 was 28.7 µM in series [1], 22.5 µM in series [3], 16.4 µM in series [5] and 21.2 µM in series [6]. In addition, the solubility result in series [2] and in series [4] was “Soluble” each time.

Take `CC(O)(COc1cccc(C(F)(F)F)c1)C(=O)Nc1ccc([N+](=O)[O-])cc1C(F)(F)F` (stereo not given): the IC50 in series [1] was 12.9 µM; in series [3] it was 18.1 µM; in series [5], 15.2 µM; in series [6], 19.3 µM. For the same compound, the solubility result in series [2] and in series [4] was “Soluble” each time.

In the case of `CC(O)(CSc1cccc(C(F)(F)F)c1)C(=O)Nc1ccc(C#N)cc1C(F)(F)F` (stereo not given), the IC50 is 11.3 µM in series [1], 21.1 µM in series [3], 15.2 µM in series [5] and 23.5 µM in series [6]. Further, the solubility entry in series [2] and in series [4] was “Soluble” throughout.

Consider `CC(O)(CSc1cc(C(F)(F)F)ccn1)C(=O)Nc1ccc([N+](=O)[O-])cc1C(F)(F)F` (stereo not given), for which the IC50 in series [1] is 5.52 µM; in series [3], 14 µM; in series [5], 11.5 µM; in series [6], 17.4 µM. Also, the solubility entry in series [2] and in series [4] was “Soluble” each time.

As for `CC(O)(CS(=O)(=O)c1cccc(OC(F)(F)F)c1)C(=O)Nc1ccc([N+](=O)[O-])cc1C(F)(F)F` (stereo not given), the IC50 came to 12.2 µM in series [1], 27.7 µM in series [3], 18 µM in series [5] and 20.3 µM in series [6]. Also, the solubility result in series [2] and in series [4] was “Soluble” each time.

Consider `CC(O)(CSc1ccccc1C(F)(F)F)C(=O)Nc1ccc(C(F)(F)F)cc1` (stereo not given), for which the IC50 in series [1] came to 7.22 µM; in series [3], 8.76 µM; in series [5], 5.2 µM; in series [6], 5.86 µM. In addition, the solubility result in series [2] and in series [4] was “Soluble” each time.

As for `CC(O)(CSc1cccc(C(F)(F)F)c1)C(=O)Nc1ccc([N+](=O)[O-])cc1C(F)(F)F` (stereo not given), the IC50 in series [1] was determined as 10.1 µM; in series [3], 14.3 µM; in series [5], 12.6 µM; in series [6], 16.5 µM. Also, the solubility result in series [2] and in series [4] was “Soluble” each time.

Take `CC(O)(COc1ccc(C#N)cc1)C(=O)Nc1ccc([N+](=O)[O-])c(C(F)(F)F)c1` (stereo not given): the IC50 amounted to 18.7 µM in series [1], 32.7 µM in series [3], 30.9 µM in series [5] and 26.9 µM in series [6]. The solubility result in series [2] and in series [4] was “Soluble” in each case.

Take `CC(O)(COc1cccc(OC(F)(F)F)c1)C(=O)Nc1ccc(C(F)(F)F)cc1` (stereo not given): the IC50 in series [1] was found to be 2.16 µM; in series [3], 29.4 µM; in series [5], 15.4 µM; in series [6], 4.28 µM. For the same compound, the solubility result in series [2] and in series [4] was “Soluble” throughout.

Consider `CC(O)(CS(=O)(=O)c1ccccc1C(F)(F)F)C(=O)Nc1ccc(C#N)cc1C(F)(F)F` (stereo not given), for which the IC50 is 74 µM in series [1], 100 µM in series [3], 98.8 µM in series [5] and 100 µM in series [6]. Further, the solubility result in series [2] and in series [4] was “Soluble” throughout.

Regarding `CC(O)(COc1ccc(OC(F)(F)F)cc1)C(=O)Nc1ccc(C#N)cc1C(F)(F)F` (stereo not given), the IC50 in series [1] amounted to 27.7 µM; in series [3], 34.6 µM; in series [5], 28 µM; in series [6], 22.4 µM. Besides, the solubility result in series [2] and in series [4] was “Soluble” each time.

Take `CC(O)(COc1ccccc1C(F)(F)F)C(=O)Nc1ccc(C#N)c(C(F)(F)F)c1` (stereo not given): the IC50 stood at 9.68 µM in series [1], 17.3 µM in series [3], 11.6 µM in series [5] and 16.6 µM in series [6]. For the same compound, the solubility entry in series [2] and in series [4] was “Soluble” throughout.

Take `CC(O)(COc1ccc(F)cc1F)C(=O)Nc1ccc(C#N)cc1C(F)(F)F` (stereo not given): the IC50 was 30.6 µM in series [1], 99.5 µM in series [3], 60.9 µM in series [5] and 50.6 µM in series [6]. For the same compound, the solubility result in series [2] and in series [4] was “Soluble” each time.

For the compound `CC(O)(COc1ccc(C(F)(F)F)cn1)C(=O)Nc1ccc(C#N)cc1C(F)(F)F` (stereo not given), the IC50 in series [1], in series [3], in series [5] and in series [6] was 100 µM each time. The solubility entry in series [2] and in series [4] was “Soluble” throughout.
